The Kd is the constant that tells how readily two partners part at equilibrium. The term IC50 denotes the concentration needed to halve the response being measured. The term inhibition denotes the relative decrease from the control value, in per cent.

Assay [1] has as its target T1, wild type human RORγt ligand binding domain (RORγt LBD) (Homo sapiens, UniProt P51449).
T1 construct: His-tag (N); TurboTEV protease cleavage site (ENLYFQG) (N); made in house; host or cells: E. coli (pHIS1, modified pET expression vector)
T1 sequence (P51449 269-508 limits assumed): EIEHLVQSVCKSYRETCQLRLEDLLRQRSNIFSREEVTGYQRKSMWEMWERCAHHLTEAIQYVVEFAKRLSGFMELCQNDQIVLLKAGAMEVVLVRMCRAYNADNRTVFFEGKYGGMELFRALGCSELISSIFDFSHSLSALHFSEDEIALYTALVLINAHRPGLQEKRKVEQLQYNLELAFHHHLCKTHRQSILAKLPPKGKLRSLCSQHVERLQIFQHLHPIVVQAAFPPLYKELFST
Put plainly: RORγt ThermoFluor® Assay (thermal shift, binding affinity). As to conditions: pH 7.0, estimated from concentration response curves. As to the method: This approach is applicable to a wide variety of systems, and rigorous in theoretical interpretation through quantitation of equilibrium binding constants (KD).
The shift in the melting point described as a ΔTm is proportional to the concentration and affinity of the ligand.
Protein and compound solutions are dispensed into black 384-well polypropylene PCR microplates (Abgene) and overlayed with silicone oil (1 µL, Fluka, type DC 200) to prevent evaporation.
Bar-coded assay plates are robotically loaded onto a thermostatically controlled PCR-type thermal block and then heated at a typical ramp-rate of 1 °C/min for all experiments. Fluorescence was measured by continuous illumination with UV light (Hamamatsu LC6) supplied via fiber optic and filtered through a band-pass filter (380-400 nm; >6 OD cutoff). Fluorescence emission of the entire 384-well plate was detected by measuring light intensity using a CCD camera (Sensys, Roper Scientific) filtered to detect 500 ± 25 nm, resulting in simultaneous and independent readings of all 384 wells. Images were collected at each temperature, and the sum of the pixel intensity in a given area of the assay plate was recorded versus temperature. Reference wells contained RORγt without compounds, and the assay conditions were as follows: • 0.065 mg/mL RORγt • 60 µM 1,8-ANS • 100 mM Hepes, pH 7.0 • 10 mM NaCl • 2.5 mM GSH • 0.002% Tween-20
Project compounds were arranged in a pre-dosed mother plate (Greiner Bio-one) wherein compounds are serially diluted in 100% DMSO by 1:2 from a high concentration of 10 mM over 12 columns within a series (column 12 is a reference well containing DMSO, no compound). The compounds were robotically dispensed directly into assay plates (1x = 46 nL) using a Hummingbird capillary liquid handling instrument (Digilab). Following compound dispense, protein and dye in buffer was added to achieve the final assay volume of 3 µL, followed by 1 µL of silicone oil.

Assay [2] addresses T2, wild type human RORγt LBD (Homo sapiens, UniProt P51449).
T2 construct: expressed in transfected cells; host or cells: HEK293T
T2 sequence (P51449 269-508 limits assumed): T1 sequence (P51449 269-508 limits assumed)
Put plainly: RORγt Reporter Assay (GAL4-RORγt LBD luciferase in HEK293T cells). Type of assay: cell-based. The settings on record: HEK293T cells; for IC50: compounds for 24 hours, read-out: RORγt reporter Assay, IC50; for inhibition at 6 µM: HEK-293T, read-out: RORγt reporter Assay, % inhibition @ 6 µM, @ 6 µM. The source says:
A reporter assay was used to test functional activity of RORγt modulatory compounds on transcriptional activation driven by the RORγt LBD. Cells used in the assay were co-transfected with two constructs. The first construct, pBIND-RORγt LBD, contained the wild type human RORγt LBD fused to the DNA binding domain of the GAL4 protein. The second construct, pGL4.31 (Promega Cat no. C935A), contained multiple GAL4 responsive DNA elements upstream of firefly luciferase. […] The mutant construct was called pBIND-RORγt-AF2.
The pBIND vector contains the GAL4 DNA Binding Domain (GAL4 DBD) and the renilla luciferase gene under control of the SV40 promoter. Renilla luciferase expression serves as a control for transfection efficiency and cell viability.
The reporter assay was performed by transiently transfecting HEK293T cells with 5 µg of pBIND-RORγt LBD or pBIND-RORγt LBD-AF2 and 5 µg pGL4.31 (Promega Cat no. C935A) using Fugene 6 (Invitrogen Cat no. E2691) at a 1:6 ratio of DNA: Fugene 6 in a T-75 flask in which cells were at least 80% confluent. Twenty four hours after bulk transfection, cells were plated into 96-well plates at 50,000 cells/well in phenol-red free DMEM containing 5% Lipid Reduced FCS and Pen/Strep. Six hours after plating, cells were treated with compounds for 24 hours. Media was removed and cells were lysed with 50 µL 1x Glo Lysis Buffer (Promega). Dual Glo Luciferase Reagent (50 µL/well) was then added and firefly luciferase luminescence was read on an Envision after a ten minute incubation. Finally, Stop and Glo reagent (50 µL/well) was added and renilla luciferase luminescence was read on an Envision instrument after a ten minute incubation. To calculate the effect of compounds on RORγt activity, the ratio of firefly to renilla luciferase was determined and plotted against compound concentration. Agonist compounds increase RORγt-driven luciferase expression, and antagonist or inverse agonist compounds decrease luciferase expression.

Values joined by “and” are separate entries in the source; they are usually repeats but may differ in a detail not shown here. Identical values can stand only once. Counter-ions that a name gives are not always drawn.

As to `Cc1nc(C)c(C(O)(c2ccc3nc(C#N)c(-c4ccccc4)c(C#N)c3c2)c2cnnn2C)s1` (single isomer, unassigned) [Example 47b, 6-((2,4-Dimethylthiazol-5-yl)(hydroxy)(1-methyl-1H-1,2,3-triazol-5-yl)methyl)-3-phenylquinoline-2,4-dicarbonitrile], in assay [1], the dissociation constant (Kd) is 930 nM. Also, in assay [2], the IC50 was around 2000 nM and the inhibition at 6 µM came to 80%.
For `COc1nc2ccc(C(O)(c3ncccn3)c3cncn3C)cc2c(Cl)c1-c1ccccc1` (single isomer, unassigned) [Example 60b, (4-Chloro-2-methoxy-3-phenylquinolin-6-yl)(1-methyl-1H-imidazol-5-yl)pyrimidin-2-ylmethanol] the same measures were 900 nM, around 2000 nM and 87%.
Regarding `Cn1cncc1C(O)(c1ccc(Cl)cc1)c1ccc2nc(Cl)c(-c3ccccn3)c(Cl)c2c1` (stereo not drawn) [Example 5, (4-Chlorophenyl)(2,4-dichloro-3-(pyridin-2-yl)quinolin-6-yl)(1-methyl-1H-imidazol-5-yl)methanol•TFA], the Kd in assay [1] was 620 nM. In assay [2], the IC50 turned out to be 1700 nM and the inhibition at 6 µM was found to be 87%.
For `Cn1cncc1C(O)(c1ccc(Cl)cc1)c1ccc2nc(Cl)c(-c3cccnc3)c(Cl)c2c1` (stereo not drawn) [Example 6, (4-Chlorophenyl)(2,4-dichloro-3-(pyridin-3-yl)quinolin-6-yl)(0-methyl-1H-imidazol-5-yl)methanol•TFA], the dissociation constant Kd in assay [1] is 940 nM. For the same molecule, in assay [2], the IC50 was determined as 1900 nM and the inhibition at 6 µM is 92%.
On to `COc1nc2ccc(C(O)(c3ccc(C(F)(F)F)nc3)c3cncn3C)cc2c(Cl)c1-c1cnn(C)c1` (stereo not drawn) [Example 8, [4-Chloro-2-methoxy-3-(1-methyl-1H-pyrazol-4-yl)quinolin-6-yl](1-methyl-1H-imidazol-5-yl)[6-(trifluoromethyl)pyridin-3-yl]methanol•TFA], for which, in assay [1], the Kd was 270 nM. In assay [2], the IC50 amounted to 890 nM and the inhibition at 6 µM was found to be 87%.
Turning to `COc1nc2ccc(C(O)(c3ccc(C(F)(F)F)nc3)c3cncn3C)cc2c(Cl)c1-c1cccc(S(C)(=O)=O)c1` (stereo not drawn) [Example 11, {4-Chloro-2-methoxy-3-[3-(methylsuffonyl)phenyl]quinolin-6-yl)(1-methyl-1H-imidazol-5-yl)[6-(trifluoromethyl)pyridin-3-yl]methanol•TFA], the Kd in assay [1] was 640 nM. Also, in assay [2], the half-maximal inhibitory concentration (IC50) is above 6000 nM and the inhibition at 6 µM turned out to be 32%.
With `COc1nc2ccc(C(O)(c3ccc(C(F)(F)F)nc3)c3cncn3C)cc2c(Cl)c1-c1cccc(NS(C)(=O)=O)c1` (stereo not drawn) [Example 12], the Kd in assay [1] is 650 nM. In assay [2], the IC50 is around 2000 nM and the inhibition at 6 µM was found to be 90%.
For `COc1nc2ccc(C(O)(c3ccc(C(F)(F)F)nc3)c3cncn3C)cc2c(Cl)c1-c1cncc(S(C)(=O)=O)c1` (stereo not drawn) [Example 13, {4-Chloro-2-methoxy-3-[5-(methylsuflonyl)pyridin-3-yl]quinolin-6-yl)(1-methyl-1H-imidazol-5-yl)[6-(trifluoromethyl)pyridin-3-yl]methanol•TFA] the same measures were 2000 nM, above 6000 nM and -52%.
For `COc1nc2ccc(C(O)(c3ccc(C(F)(F)F)nc3)c3cncn3C)cc2c(Cl)c1-c1ccc(Cl)s1` (stereo not drawn) [Example 14a, [4-Chloro-3-(5-chlorothiophen-2-yl)-2-methoxyquinofin-6-yl](1-methyl-1H-imidazol-5-yl)[6-(trifluoromethyl)pyridin-3-yl]methanol•TFA] the same measures were 6.7 nM, 1100 nM and 55%.
With `COc1ncc(-c2c(OC)nc3ccc(C(O)(c4ccc(C(F)(F)F)nc4)c4cncn4C)cc3c2Cl)cn1` (stereo not drawn) [Example 15, [4-Chloro-2-methoxy-3-(2-methoxypyrimidin-5-yl)quinolin-6-yl](1-methyl-1H-imidazol-5-yl)[6-(trifluoromethyl)pyridin-3-yl]methanol•TFA], the Kd in assay [1] is 21 nM. In assay [2], the IC50 is above 6000 nM and the inhibition at 6 µM is -29%.
Regarding `COc1nc2ccc(C(O)(c3ccc(C(F)(F)F)nc3)c3cncn3C)cc2c(Cl)c1-c1ccc(NS(C)(=O)=O)cc1` (stereo not drawn) [Example 17, N-[4-(4-Chloro-6-{hydroxy(1-methyl-1H-imidazol-5-yl)[6-(trifluoromethyl)pyridin-3-yl]methyl}-2-methoxyquinolin-3-yl)phenyl]methamesulfonamide•TFA], in assay [1], the Kd was 26 nM. Moreover, in assay [2], the IC50 is 530 nM and the inhibition at 6 µM amounted to 87%.
As to `Cn1cncc1C(O)(c1ccc(C#N)cc1)c1ccc2nc(C(F)(F)F)c(-c3ccccc3)c(C#N)c2c1` (stereo not drawn) [Example 28, 6-((4-Cyanophenyl)(hydroxy)(1-methyl-1H-imidazol-5-yl)methyl)-3-phenyl-2-(trifluoromethyl)quinoline-4-carbonitrile•TFA], the Kd in assay [1] was 46 nM. Moreover, in assay [2], the IC50 was 24 nM and ~40 nM; the inhibition at 6 µM was 96%.
Regarding `CC(=O)N1CCC(C(O)(c2cccnc2)c2ccc3nc(C(F)(F)F)c(-c4ccccc4)c(Cl)c3c2)CC1` (stereo not drawn) [Example 29, 1-(4-((4-Chloro-3-phenyl-2-(trifluoromethyl)quinolin-6-yl)(hydroxy)(pyridin-3-yl)methyl)piperidin-1-yl)ethanone•TFA], the Kd in assay [1] is 26 nM. For the same molecule, in assay [2], the IC50 is 85 nM and the inhibition at 6 µM worked out at 97%.
`COc1c(-c2ccccc2)c(C(F)(F)F)nc2ccc(C(O)(c3ccc(Cl)cc3)c3cncn3C)cc12` (stereo not drawn) [Example 33a, (4-Chlorophenyl)(4-methoxy-3-phenyl-2-(trifluoromethyl)quinolin-6-yl)(1-methyl-1H-imidazol-5-yl)methanol•TFA]: in assay [1], the Kd is 160 nM. Moreover, in assay [2], the IC50 stood at 650 nM and the inhibition at 6 µM was found to be 98%.
For the molecule `COc1nc2ccc(C(O)(c3sc(C)nc3C)c3cnnn3C)cc2c(Cl)c1-c1ccccc1` (stereo not drawn) [Example 35, (4-Chloro-2-methoxy-3-phenylquinolin-6-yl)(2,4-dimethylthiazol-5-yl)(1-methyl-1H-1,2,3-triazol-5-yl)methnol•TFA], in assay [1], the Kd was 18 nM. In addition, in assay [2], the IC50 amounted to 160 nM and the inhibition at 6 µM was 101%.
In the case of `COc1c(-c2ccccc2)c(Cl)nc2ccc(C(O)(c3sc(C)nc3C)c3cnnn3C)cc12` (stereo not drawn) [Example 36], the Kd in assay [1] is 0.89 nM. Also, in assay [2], the IC50 was 11 nM and ~40 nM; the inhibition at 6 µM was 97%.
For the molecule `COc1nc2ccc(C(O)(c3sc(C)nc3C)c3cncn3C)cc2c(Cl)c1-c1ccccc1` (stereo not drawn) [Example 37, (4-Chloro-2-methoxy-3-phenylquinolin-6-yl)(2,4-dimethylthiazol-5-yl)(1-methyl-1H-imidazol-5-yl)methanol•TFA], the dissociation constant Kd in assay [1] is 7.2 nM. Further, in assay [2], the 50% inhibitory concentration (IC50) worked out at 260 nM and the inhibition at 6 µM is 90%.

Source of the values: EP3057950B1, “PHENYL LINKED QUINOLINYL MODULATORS OF ROR-GAMMA-T” (Janssen Pharmaceutica NV, priority 2013, dated 2015).
